Values after ≈ are worked out from the molar mass of the structure shown. Active and inactive are the calls of the source. No cut-off for these calls is given here.
Experiments:
[1] = tested on: Streptococcus pneumoniae; assay: Antibacterial activity against Streptococcus pneumoniae 49619 by NCCLS method; format: functional
[2] = tested on: Moraxella catarrhalis; assay: Antibacterial activity against Moraxella catarrhalis 8176 by NCCLS method; format: functional
[3] = tested on: Streptococcus pneumoniae; assay: Antibacterial activity against telethromycin-resistant Streptococcus pneumoniae 3488 expressing erm gene by NCCLS method; format: functional
[4] = tested on: Streptococcus pneumoniae; assay: Antibacterial activity against telethromycin-resistant Streptococcus pneumoniae 217 expressing erm gene by NCCLS method; format: functional
[5] = tested on: Streptococcus pneumoniae; assay: Antibacterial activity against telethromycin-resistant Streptococcus pneumoniae 162 expressing erm gene by NCCLS method; format: functional
[6] = tested on: Streptococcus pneumoniae; assay: Antibacterial activity against telethromycin-resistant Streptococcus pneumoniae 5099 expressing erm gene by NCCLS method; format: functional
[7] = tested on: Streptococcus pneumoniae; assay: Antibacterial activity against telethromycin-resistant Streptococcus pneumoniae 5051 expressing erm gene by NCCLS method; format: functional
[8] = tested on: Streptococcus pneumoniae; assay: Antibacterial activity against Streptococcus pneumoniae 3579 expressing erm gene by NCCLS method; format: functional
[9] = tested on: Streptococcus pneumoniae; assay: Antibacterial activity against telethromycin-resistant Streptococcus pneumoniae 3271 expressing erm gene by NCCLS method; format: functional
[10] = tested on: Streptococcus pneumoniae; assay: Antibacterial activity against Streptococcus pneumoniae 3579 expressing erm gene infected in mouse systemic infection model; format: functional, organism-based
[11] = tested on: Streptococcus pneumoniae; assay: Antibacterial activity against Streptococcus pneumoniae 994 expressing mef gene by NCCLS method; format: functional
[12] = tested on: Streptococcus pneumoniae; assay: Antibacterial activity against telethromycin-resistant Streptococcus pneumoniae 3489 expressing erm gene by NCCLS method; format: functional
[13] = tested on: Streptococcus pneumoniae; assay: Antibacterial activity against telethromycin-resistant Streptococcus pneumoniae 757 expressing erm gene by NCCLS method; format: functional
[14] = tested on: Streptococcus pneumoniae; assay: Antibacterial activity against telethromycin-resistant Streptococcus pneumoniae 3390 expressing erm gene by NCCLS method; format: functional
[15] = tested on: Streptococcus pyogenes; assay: Antibacterial activity against Streptococcus pyogenes 19615 by NCCLS method; format: functional
[16] = tested on: Streptococcus pneumoniae; assay: Antibacterial activity against Streptococcus pneumoniae 6303 by NCCLS method; format: functional
[17] = tested on: Streptococcus pneumoniae; assay: Antibacterial activity against telethromycin-resistant Streptococcus pneumoniae B739 expressing erm gene by NCCLS method; format: functional
[18] = tested on: Streptococcus pneumoniae; assay: Antibacterial activity against telethromycin-resistant Streptococcus pneumoniae AB14 expressing erm gene by NCCLS method; format: functional
[19] = tested on: Streptococcus pneumoniae; assay: Antibacterial activity against telethromycin-resistant Streptococcus pneumoniae 2840 expressing erm gene by NCCLS method; format: functional
[20] = tested on: Haemophilus influenzae; assay: Antibacterial activity against Haemophilus influenzae 38 by NCCLS method; format: functional
[21] = tested on: Streptococcus pneumoniae; assay: Antibacterial activity against Streptococcus pneumoniae by NCCLS method; format: functional

| MIC [1] | MIC [2] | MIC [8] | MIC [11] | MIC [15] | MIC [16] | MIC [20] | Structure (SMILES) | also measured |
| --- | --- | --- | --- | --- | --- | --- | --- | --- |
| 0.06 µg/mL (≈ 0.0644 µM) | 0.06 µg/mL (≈ 0.0644 µM) | 8 µg/mL (≈ 8.58 µM) | 0.25 µg/mL (≈ 0.268 µM) | 0.03 µg/mL (≈ 0.0322 µM) | 0.06 µg/mL (≈ 0.0644 µM) | < 0.03 µg/mL | C=CCN(C)[C@H]1C[C@@H](C)O[C@@H](O[C@@H]2[C@@H](C)[C@H](OC(=O)Cc3cccnc3)[C@@H](C)C(=O)O[C@H](CC)[C@@]3(C)OC(=O)N(CCCCn4ccc5cccnc54)[C@@H]3[C@@H](C)C(=O)[C@H](C)C[C@@]2(C)OC)[C@@H]1O | – |
| 0.03 µg/mL (≈ 0.0308 µM) | 0.125 µg/mL (≈ 0.128 µM) | 0.125 µg/mL (≈ 0.128 µM) | 0.06 µg/mL (≈ 0.0617 µM) | 0.03 µg/mL (≈ 0.0308 µM) | 0.03 µg/mL (≈ 0.0308 µM) | < 0.06 µg/mL | C=CCN(C)[C@H]1C[C@@H](C)O[C@@H](O[C@@H]2[C@@H](C)[C@H](OC(=O)Cc3ccccn3)[C@@H](C)C(=O)O[C@H](CC)[C@@]3(C)OC(=O)N(CCCCn4cnc(-c5cccc(N)c5)c4)[C@@H]3[C@@H](C)C(=O)[C@H](C)C[C@@]2(C)OC)[C@@H]1O | – |
| 0.015 µg/mL (≈ 0.0163 µM) | 0.125 µg/mL (≈ 0.136 µM) | 0.25 µg/mL (≈ 0.271 µM) | 0.25 µg/mL (≈ 0.271 µM) | 0.03 µg/mL (≈ 0.0326 µM) | 0.06 µg/mL (≈ 0.0651 µM) | 0.06 µg/mL (≈ 0.0651 µM) | CC[C@H]1OC(=O)[C@H](C)[C@@H](OC(=O)Cc2ccccn2)[C@H](C)[C@@H](O[C@@H]2O[C@H](C)C[C@H](N(C)CC)[C@H]2O)[C@](C)(OC)C[C@@H](C)C(=O)[C@H](C)[C@H]2N(CCCCn3cnc4ncccc43)C(=O)O[C@]12C | – |
| 0.06 µg/mL (≈ 0.0632 µM) | 0.125 µg/mL (≈ 0.132 µM) | 0.5 µg/mL (≈ 0.527 µM) | 0.125 µg/mL (≈ 0.132 µM) | 0.03 µg/mL (≈ 0.0316 µM) | 0.125 µg/mL (≈ 0.132 µM) | 0.125 µg/mL (≈ 0.132 µM) | C=CCN(C)[C@H]1C[C@@H](C)O[C@@H](O[C@@H]2[C@@H](C)[C@H](OC(=O)Cc3ccccn3)[C@@H](C)C(=O)O[C@H](CC)[C@@]3(C)OC(=O)N(CCCCn4cnc5c(N)ncnc54)[C@@H]3[C@@H](C)C(=O)[C@H](C)C[C@@]2(C)OC)[C@@H]1O | – |
| 0.125 µg/mL (≈ 0.134 µM) | 0.06 µg/mL (≈ 0.0643 µM) | 0.25 µg/mL (≈ 0.268 µM) | 0.125 µg/mL (≈ 0.134 µM) | 0.125 µg/mL (≈ 0.134 µM) | 0.125 µg/mL (≈ 0.134 µM) | 0.06 µg/mL (≈ 0.0643 µM) | C=CCN(C)[C@H]1C[C@@H](C)O[C@@H](O[C@@H]2[C@@H](C)[C@H](OC(=O)Cc3ccccn3)[C@@H](C)C(=O)O[C@H](CC)[C@@]3(C)OC(=O)N(CCCCn4cnc5ccncc54)[C@@H]3[C@@H](C)C(=O)[C@H](C)C[C@@]2(C)OC)[C@@H]1O | – |

| Structure (SMILES) | MIC [1] | MIC [2] | MIC [8] | MIC [11] | MIC [15] | MIC [16] | MIC [20] | also measured |
| --- | --- | --- | --- | --- | --- | --- | --- | --- |
| C=CCN(C)[C@H]1C[C@@H](C)O[C@@H](O[C@@H]2[C@@H](C)[C@H](OC(=O)Cc3ccccn3)[C@@H](C)C(=O)O[C@H](CC)[C@@]3(C)OC(=O)N(CCCCn4cnc(-c5ccc(N)nc5)c4)[C@@H]3[C@@H](C)C(=O)[C@H](C)C[C@@]2(C)OC)[C@@H]1O | 0.06 µg/mL (≈ 0.0616 µM) | 0.125 µg/mL (≈ 0.128 µM) | 0.25 µg/mL (≈ 0.257 µM) | 0.125 µg/mL (≈ 0.128 µM) | 2 µg/mL (≈ 2.05 µM) | 0.06 µg/mL (≈ 0.0616 µM) | – | MIC [3]: 0.03 µg/mL (≈ 0.0308 µM); MIC [4]: 0.06 µg/mL (≈ 0.0616 µM); MIC [5]: 0.5 µg/mL (≈ 0.513 µM); MIC [6]: 0.03 µg/mL (≈ 0.0308 µM); MIC [7]: 0.03 µg/mL (≈ 0.0308 µM); MIC [9]: 0.25 µg/mL (≈ 0.257 µM); Activity [10]: Active; MIC [12]: 0.25 µg/mL (≈ 0.257 µM); MIC [13]: 0.06 µg/mL (≈ 0.0616 µM); MIC [14]: 0.06 µg/mL (≈ 0.0616 µM); MIC [17]: 0.125 µg/mL (≈ 0.128 µM); MIC [18]: 0.03 µg/mL (≈ 0.0308 µM); MIC [19]: 0.25 µg/mL (≈ 0.257 µM) |
| CC[C@H]1OC(=O)[C@H](C)[C@@H](O[C@H]2C[C@@](C)(OC)[C@@H](O)[C@H](C)O2)[C@H](C)[C@@H](O[C@@H]2O[C@H](C)C[C@H](N(C)C)[C@H]2O)[C@](C)(OC)C[C@@H](C)C(=O)[C@H](C)[C@@H](O)[C@]1(C)O [CLARITHROMYCIN] | 0.125 µg/mL (≈ 0.167 µM) | 4 µg/mL (≈ 5.35 µM) | 4 µg/mL (≈ 5.35 µM) | 0.5 µg/mL (≈ 0.668 µM) | 0.125 µg/mL (≈ 0.167 µM) | 0.25 µg/mL (≈ 0.334 µM) | > 16 µg/mL | MIC [21]: 0.25 µg/mL (≈ 0.334 µM) |
| CC[C@H]1OC(=O)[C@H](C)C(=O)[C@H](C)[C@@H](O[C@@H]2O[C@H](C)C[C@H](N(C)C)[C@H]2O)[C@](C)(OC)C[C@@H](C)C(=O)[C@H](C)[C@H]2N(CCCCn3cnc(-c4cccnc4)c3)C(=O)O[C@]12C [TELITHROMYCIN] | 0.06 µg/mL (≈ 0.0739 µM) | 0.25 µg/mL (≈ 0.308 µM) | 0.25 µg/mL (≈ 0.308 µM) | 0.25 µg/mL (≈ 0.308 µM) | 0.03 µg/mL (≈ 0.0369 µM) | 0.03 µg/mL (≈ 0.0369 µM) | 1 µg/mL (≈ 1.23 µM) | MIC [3]: 8 µg/mL (≈ 9.85 µM); MIC [4]: 4 µg/mL (≈ 4.93 µM); MIC [5]: 64 µg/mL (≈ 78.8 µM); MIC [6]: 8 µg/mL (≈ 9.85 µM); MIC [7]: 4 µg/mL (≈ 4.93 µM); MIC [9]: 64 µg/mL (≈ 78.8 µM); MIC [12]: 64 µg/mL (≈ 78.8 µM); MIC [13]: 32 µg/mL (≈ 39.4 µM); MIC [14]: 8 µg/mL (≈ 9.85 µM); MIC [17]: 64 µg/mL (≈ 78.8 µM); MIC [18]: 8 µg/mL (≈ 9.85 µM); MIC [19]: 64 µg/mL (≈ 78.8 µM) |
| CC[C@H]1OC(=O)[C@H](C)[C@@H](O[C@H]2C[C@@](C)(OC)[C@@H](O)[C@H](C)O2)[C@H](C)[C@@H](O[C@@H]2O[C@H](C)C[C@H](N(C)C)[C@H]2O)[C@](C)(O)C[C@@H](C)C(=O)[C@H](C)[C@@H](O)[C@]1(C)O [ERYTHROMYCIN] | 0.125 µg/mL (≈ 0.17 µM) | 8 µg/mL (≈ 10.9 µM) | 8 µg/mL (≈ 10.9 µM) | 0.5 µg/mL (≈ 0.681 µM) | 0.015 µg/mL (≈ 0.0204 µM) | 0.25 µg/mL (≈ 0.341 µM) | > 16 µg/mL | MIC [21]: 0.25 µg/mL (≈ 0.341 µM) |

From ChEMBL document CHEMBL1933046, “Synthesis and antibacterial activity of a novel series of acylides active against community acquired respiratory pathogens” (2012)
